The text below walks through data of PubChem BioAssay (NCI).

Molecules are shown by their SMILES.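 All cell lines were grown in 96-well plates and treated with compound for 48 hours. Abbreviation: GI50, concentration required for 50% inhibition of growth. TGI denotes the concentration required for complete inhibition of growth.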 Bounds are passed on as bounds.

Holding throughout (assay): DTP human tumour cell line panel, 48 h
Test [1] has as its system NCI-H522 lung.
Test [2] deals with SF-268 CNS.
The test system of test [3] is RXF 393 renal.
The test system of test [4] is EKVX NSCLC.
For test [5], the system named is M14 melanoma.
In test [6] the test system is U251 CNS.
For test [7], the system named is SNB-19 CNS.
Test [8] deals with 786-0 renal.
Test [9] relates to NCI-H460 lung.
Test [10] deals with BT-549 breast.

In general, TGI refers to the concentration giving total growth inhibition. Usually GI50 stands for the concentration that inhibits growth by half.

With `COc1cccc(-c2nccc3c(OCc4ccccc4)c(OC)c(OC)cc23)c1`, the TGI in test [1], in test [2], in test [3], in test [4], in [5] and in test [6] was over 100 µM throughout. Further, the TGI in test [7] is over 100 µM.
With `CC(=O)N(C(C)=O)n1c(Cc2ccc(C)cc2)nn(C(C)=O)c1=O`, the TGI in test [1], in test [2], in test [8], in test [9], in [4] and in test [5] was over 100 µM throughout. The TGI in test [6], in [10] and in [7] was over 100 µM throughout.
As to `Cc1c2ccccc2c(C)n2c1nc1ccccc12`, the TGI in test [2] is 30 µM; in test [8] it was 25.9 µM; in [3] it was 21.5 µM; in test [9] it was 20.1 µM; in [4], 54.9 µM; in test [5], 24.1 µM. In addition, the TGI in test [10] is 35.3 µM; in [7], 68.3 µM.
For the compound `COc1ccc(N=C2C(=Nc3ccc(OC)cc3)N(c3ccc(N(C)C)cc3)C(=S)N2c2ccc(OC)cc2)cc1`, the total growth inhibition concentration (TGI) in test [1], in test [2], in test [8], in test [9], in [4] and in [5] was over 100 µM in each case. Further, the TGI in [6], in test [10] and in test [7] was over 100 µM each time.
For `CC1=CCC[C@H]2[C@](C)(CC3=CC(=O)C(Sc4ccccc4)=CC3=O)[C@@H](C)CC[C@]12C`, the TGI in test [8] was 32.2 µM; in [3], 34.3 µM; in [9], 42.9 µM; in [4], 38.9 µM; in [5], 33.7 µM; in [6], 40.1 µM. Also, the values for the TGI in test [10] and in test [7] were 34.1 µM and 38.8 µM, respectively. In addition, in test [3], the GI50 is 16.1 µM.
As for `CN[C@@H](C)[C@@H](O)c1ccccc1`, the TGI is over 10 µM in test [1]; over 100 µM in test [2]; over 100 µM in test [8]; over 100 µM in test [9]; over 100 µM in [4]; over 100 µM in test [5]. The TGI in test [6] and in test [7] was over 100 µM in each case.
For the compound `NC(=Nc1ccccc1)c1ccccc1N`, the TGI in test [2], in test [8], in [3], in test [9], in [4] and in test [5] was over 100 µM throughout. Further, the TGI in test [6], in test [10] and in [7] was over 100 µM each time.
Turning to `Clc1ccc(C2CC(c3cccc(Nc4ccncc4)c3)=NN2c2cc(Cl)cc(Cl)c2)cc1` (centres undefined), the GI50 in [1] was 1.86 µM; in [2], 1.78 µM; in [9], 1.97 µM; in test [4] it was 1.6 µM; in [5] it was 1.81 µM; in [10], 1.85 µM. Also, the TGI in [1] turned out to be 3.79 µM; in test [2], 3.59 µM; in test [9] it was 4.03 µM; in test [4] it was 3.12 µM; in [5], 3.9 µM; in test [10], 3.57 µM.
`C[n+]1c2ccccc2c(/C=N\NS(=O)(=O)c2ccc(Cl)cc2)c2ccccc21`: the TGI in test [1], in test [2], in test [8], in test [3], in test [9] and in test [4] was over 100 µM each time. Besides, the TGI in [5], in [6] and in [7] was over 100 µM each time.
For the compound `N[C@H](CCC(=O)NCP(=O)(O)O)C(=O)O`, the TGI in [1], in test [8], in [9], in [4], in [6] and in test [10] was over 100 µM throughout. The TGI in test [7] is over 100 µM.
Consider `CCN(CC)CCOc1ccc(C(O)(Cc2ccc(OC)cc2)c2ccccc2)cc1` (centres undefined), for which the TGI amounted to 40.9 µM in [1]; 52 µM in test [2]; 32.3 µM in test [8]; 30.4 µM in test [3]; 51.9 µM in test [9]; 80.6 µM in test [4]. Moreover, the TGI is 27.8 µM in test [5], 35.5 µM in [6] and 67.5 µM in test [7].
In the case of `O=C1C2=C(SCCS2)C(=O)c2c(Sc3ccc(Cl)cc3)c(Sc3ccc(Cl)cc3)c(Sc3ccc(Cl)cc3)c(Sc3ccc(Cl)cc3)c21`, the TGI in test [2] was over 100 µM; in test [8] it was over 100 µM; in test [3], 99.4 µM; in [9], over 100 µM; in test [4] it was over 100 µM; in test [5], over 100 µM. Further, the TGI is over 100 µM in test [6], over 100 µM in [10] and 88.6 µM in test [7].
Turning to `COP(=O)(O)C(N)Cc1c[nH]c2ccccc12` (centres undefined), the TGI in test [1], in test [9], in test [5], in test [6] and in test [7] was over 100 µM in each case.
For `CCC(=O)/C(=C\I)c1ccccc1`, the TGI was 40.3 µM in test [2]; 3.33 µM in [8]; 3.01 µM in test [3]; 25.5 µM in [9]; 33.6 µM in [4]; 4.72 µM in [5]. Moreover, the TGI came out at 4.83 µM in [6], 3.3 µM in [10] and 29 µM in test [7].
Turning to `CC12CCC(C(=Nc3cc(C(F)(F)F)cc(C(F)(F)F)c3)C1=O)C2(C)C` (centres undefined), the TGI is 84.5 µM in [2]; over 100 µM in test [8]; 37.3 µM in test [3]; over 100 µM in test [9]; over 100 µM in [4]; over 100 µM in test [5]. The TGI in test [6], in test [10] and in test [7] was over 100 µM throughout.
Regarding `Cc1cc(O)cc(O)c1C(=O)O[C@]1(C)C(=O)C=C2C=C(/C=C/C(=O)O)OC=C2C1=O`, the TGI in test [2], in [8], in test [3], in test [9], in [4] and in test [5] was over 100 µM throughout. Moreover, in test [7], the TGI was over 100 µM.
Turning to `O=C1/C(=C/c2ccccc2)NC(=S)N1CN1CCCCC1`, the TGI in [2], in test [8], in test [4], in test [5], in test [6] and in test [7] was over 100 µM each time.
In the case of `CCOC(=O)c1[nH]c2cccc3c2c1CC[C@H](NC(=O)C(F)(F)F)C3=O`, the TGI in test [2] is over 100 µM; in test [8], over 100 µM; in [9], over 100 µM; in [4] it was 0.0531 µM; in test [5], over 100 µM; in test [6], 72.7 µM. In addition, the TGI in test [10] is over 100 µM; in test [7] it was 46.3 µM.
As for `c1csc(-c2ccsc2-c2ccsc2)c1`, the TGI was over 100 µM in test [2]; over 100 µM in [8]; 76.3 µM in [3]; over 100 µM in test [9]; over 100 µM in test [4]; over 100 µM in test [5]. In addition, the TGI in [6] and in test [10] was over 100 µM in each case.
With `COC1=C2C=[N+](C)C3C(=C2C=CC1OC)Cc1cc2c(cc13)OCO2` (centres undefined), the TGI came to 21.4 µM in [1]; 20.3 µM in test [2]; 29.6 µM in test [8]; 35.6 µM in test [4]; 30.1 µM in test [5]; 30.7 µM in [6]. For the same compound, the values for the TGI in test [10] and in test [7] were 28.1 µM and 17.2 µM, respectively.
Take `O=C(O)CCc1ccc2c(c1)CC1(Cc3ccccc3C1)C2`: the TGI in test [1], in test [8], in [3], in [4], in [5] and in test [6] was over 100 µM in each case.
For the compound `CC(=O)OCCCCn1cc(Cn2ccc(=O)n(Cc3cn(CCCCOC(C)=O)nn3)c2=O)nn1`, the TGI in [2], in test [8], in test [3], in test [4], in [5] and in test [6] was over 100 µM throughout. The TGI in test [10] and in [7] was over 100 µM throughout.
With `CC(=O)Oc1cc(OC(C)=O)c2c(C)cc(=O)oc2c1`, the TGI in test [2], in test [8], in [4], in [5], in [6] and in [7] was over 100 µM in each case.
Turning to `COC(=O)c1ccccc1C1=C([N+](=O)[O-])C(c2ccccc2)C(C#N)=C(N)O1` (centres undefined), the TGI is 30.8 µM in test [1]; over 100 µM in test [2]; over 100 µM in test [8]; 95.2 µM in test [3]; over 100 µM in [9]; over 100 µM in test [4]. Besides, the TGI in [5], in test [6] and in [7] was over 100 µM throughout.
